Assay results as given in US20250090541A1, “Methods for Treating Neurodegenerative Disorders” (Praetego Inc, priority 2022, published 2025).

What was measured:
Type in all cases: in vivo
[1] = system: PSD95; experiment: Western blot of hippocampus, 3×Tg mice: PSD95
Method: (§1) Female and male 3×Tg mice (MMRRC #034830) were treated daily for 20 weeks with PTG-670 trihydrochloride at 1 and 5 mg/kg in drinking water starting at 19 weeks of age (˜5 months old) (just before cognitive deficits onset).
(§2) Mouse Hippocampus were processed for Western blotting analysis of Drebrin (actin binding protein in dendritic spines, role in neuronal growth, a decrease is a contributing factor in the pathogenesis of memory disturbance), PSD95 (a post-synaptic protein, role in the regulation of excitatory synapse maturity), and NeuN (neuronal nuclear antigen, biomarker for neurons, decrease=neuronal loss) (FIG. 12). The reduced drebrin levels in the hippocampus of 3×Tg mice was ameliorated by 20 weeks of treatment with PTG-670 at 5 mg/kg in drinking water only for female mice. Similarly, levels of PSD95 protein tend to decrease in 3×Tg mice and to be ameliorated by 5 mg/kg PTG670.

[2] = system: 3×Tg mice; experiment: Barnes maze learning abilities, 3×Tg mice
Method: as §1
(§3) Tactile and thermal responses were assessed at 5 and 11 weeks. Motor nerve conduction velocity (NCV) was measured at 8, 12 and 20 weeks after treatment. Learning and memory were assessed using the Barnes maze test and the object recognition test at 6, 12, and 18 weeks of treatment. Corneal nerves were imaged by corneal confocal microscopy (CCM) at week 5, 11 and 17. Data represent male and female results combined, unless specified, mean±sem.
Learning abilities assessed using the Barnes maze were impaired in 3×Tg mice in both male and female around 6-7 months, conform with the literature (Stover et al., 2015).

[3] = system: NeuN; experiment: Western blot of hippocampus, 3×Tg mice: NeuN
Method: as §1, §2

[4] = system: 3×Tg mice; experiment: Thermal response to heat stimuli, 3×Tg mice; conditions: 3×Tg mice did not develop significant hypoalgesia
Method: as §1, §3

[5] = system: Drebrin; experiment: Western blot of hippocampus, 3×Tg mice: Drebrin
Method: as §1, §2

[6] = Mortality and apparent toxicity, 20 weeks in 3×Tg mice; conditions: 1 and 5 mg/kg in drinking water
Method: as §1
• 1—Control (B6129SF2/J Jax 101045)), N=7 male, N=7 female, • 2—3×Tg, N=7 male, N=7 female, • 3—3×Tg+PTG-670 1 mg/kg drinking water, N=7 male, N=7 female, • 4—3×Tg+PTG-670 5 mg/kg drinking water, N=7 male, N=7 female.
No mice died during the course of the study.

[7] = system: 3×Tg mice; experiment: Object Recognition test, 3×Tg mice; conditions: for short term episodic memory deficits in Object recognition test: 5 mg/kg
Method: as §1, §3

[8] = system: 3×Tg mice; experiment: Tactile response (manual von Frey filaments), 3×Tg mice; conditions: 3×Tg mice did not develop tactile allodynia
Method: as §1, §3

[9] = system: 3×Tg mice; experiment: Barnes maze long-term memory, 3×Tg mice
Method: as §1, §3
Using the Barnes maze test, long-term memory was assessed between week 12 and 18 of treatment.

[10] = system: 4-hydroxynonal (4-HNE); experiment: Lipid peroxidation, 4-HNE Oxiselect Elisa in hippocampus homogenates, 3×Tg mice; conditions: 5 mg/kg
Method: as §1
Lipid peroxidation was assessed using the 4-Hydroxynonal (4-HNE) Oxiselect Elisa in hippocampus homogenates.

[11] = system: 3×Tg mice; experiment: Motor nerve conduction velocity (NCV), 3×Tg mice; conditions: male 3×Tg mice, 20 weeks time point
Method: as §1, §3
Male 3×Tg mice develop significant (p<0.05) nerve conduction velocity slowing by 9 months of age (20 weeks time point) (data not shown). The slowing of NCV was prevented by treatment with PTG-670 at both 1 and 5 mg/kg in drinking water.

Structure (SMILES): Cc1ncc(CN2CCCCCC2)c(-c2ncc[nH]2)c1O [PTG-670, 5-(azepan-1-ylmethyl)-4-(1H-imidazol-2-yl)-2-methylpyridin-3-ol]
- levels of PSD95 protein in hippocampus ([1]; 5 mg/kg, tendency): ameliorated
- PSD95 in hippocampus ([1]; male 3×Tg mice): No differences were observed
- learning abilities in Barnes maze ([2]; female 3×Tg mice, 1 mg/kg for 18 weeks): significantly improved learning abilities to level similar to control
- learning deficits in Barnes maze ([2]; male 3×Tg mice): did not improve learning deficits
- neuronal loss (NeuN) in hippocampus ([3]; female mice only, 5 mg/kg): significantly (p<0.05) elevated
- NeuN in hippocampus ([3]; male 3×Tg mice): No differences were observed
- responses to heat stimuli [4]: did not affect the 3×Tg mice responses to heat stimuli
- reduced drebrin levels in hippocampus ([5]; female mice only, 5 mg/kg in drinking water, 20 weeks): ameliorated
- Drebrin in hippocampus ([5]; male 3×Tg mice): No differences were observed
- apparent toxicity [6]: No apparent toxicity was observed
- short term episodic memory deficits in Object recognition test ([7]; after 6 weeks of treatment): significantly (p<0.05) ameliorated
- short term episodic memory deficits in Object recognition test ([7]; after 18 weeks of treatment): significantly (p<0.05) ameliorated
- short-term episodic memory (recognition index) ([7]; FIG. 10 legend, 6 to 18 weeks of treatment): alleviated
- responses to von Frey filaments [8]: did not affect mice responses to von Frey filaments
- long-term memory impairment in Barnes maze ([9]; female 3×Tg mice, 1 mg/kg, by week 18 of treatment): significantly (p<0.05) prevented
- memory abilities in Barnes maze ([9]; male 3×TG mice): No difference in memory abilities or effect
- 4-HNE levels in hippocampus [10]: tend to reduce HNE levels
- slowing of NCV ([11]; 1 mg/kg in drinking water): prevented
- slowing of NCV ([11]; 5 mg/kg in drinking water): prevented
